Results on seven molecules are retold here after patent publication US6407106B1, “N-triazolylmethyl-piperazine compounds with neurokinin-receptor antagonist activity” (Solvay Pharmaceuticals GmbH, priority 2000, dated 2002).

pEC50, pKi: −log10 of the molar value.

One series is described as follows: Solubility in water. The class given is physicochemical.
A further series has as its target T1, NK-1 receptors (Cavia porcellus, UniProt P30547).
T1 construct: isolated ring preparations, kept in an oxygenated nutrient solution, of the aortas of Pirbright-White guinea pigs; from tissue; host or cells: isolated aorta rings of Pirbright-White guinea pigs
Briefly: Functional NK-1 antagonism on isolated guinea pig aorta rings (inhibition of Substance P-induced relaxation). Particulars: half maximum inhibition of relaxation of tone caused by 0.01 μmol Substance P; phenylephrine-tonicised guinea pig aorta. In kind it is cell-based. The protocol:
The action antagonistic to NK-1 receptors of the test substances was measured in vitro on isolated ring preparations, kept in an oxygenated nutrient solution, of the aortas of Pirbright-White guinea pigs. The inhibition by the test substances of the relaxation of tone of the aorta preparations, caused after stimulation with the NK-1 agonist Substance P, was determined.
In order to measure the contraction of the vessel muscles, the preparations were fixed to a hook, joined by a thread to a force measuring apparatus and the contractions were recorded in each case on a plotter. The aorta preparations were tonicised with phenylephrine. Then before and after the administration of the test substance the NK-1 receptors of the preparations were stimulated with 0.01 μmol Substance P, which caused relaxation of the tone. The relaxations before and after the administration of the test substance were quantified in percent. The effective concentration of the half maximum inhibition of the relaxation of the tone (=EC50) was calculated. The negative common logarithm of the EC50 value (=pEC50) was given as characteristic variable. The pEC50 value is a measurement of the functional effectiveness of the test substances on NK-1 receptors.

The next series deals with gerbil foot tapping. Briefly: Gerbil foot tapping test for CNS-permeable NK-1 antagonists. In kind it is in vivo. As to conditions: doses of up to 30 mg/kg p.o.
A further series concerns basal blood pressure. The experiment in a line: Vasodepressive effects based on calcium-antagonistic properties (action on basal blood pressure). In kind it is in vivo. Particulars: guinea pig, i.v. doses of up to 0.1 μmol/kg and p.o. doses of up to 3.2 μmol/kg. As for the experimental part: The arterial catheter served to measure the blood pressure. The administration of Substance P and, in the case of i.v. administration, also the administration of the test substance, was effected by means of the venous access. After a 20-minute equilibration phase, 50 pmol/animal of Substance P were administered (bolus, i.v.) as a test stimulus. One minute after administration of the test stimulus, in each case the maximum drop in blood pressure induced thereby was determined as a control for the later stimulation of the NK-1 receptors by the test substance. Then the test substance was administered. For the i.v. investigation, the test substance was administered in metered doses of 0.01 to 0.1 μmol/kg. For the p.o. investigation, the test substance was administered in metered doses of 0.1 to 3.2 μmol/kg. Tylose or Tylose/ethanol was used as the vehicle for the p.o. investigations. Then, in each case the extent of the vasodepression inhibited by the test substance was measured, starting 1 minute after administration of test substance, up to 90 minutes after administration of test substance, at intervals of 15 minutes each time. The doses at which, dependent on the time, just 50% inhibition of the Substance P-induced vasodepression occurs due to the test substance were determined from these measured values as ED50 values. […]

In another series the target is T2, human NK-1 receptors (Homo sapiens, UniProt P25103).
T2 construct: expressed in transfected cells; host or cells: CHO cells (membrane preparation)
Briefly: Binding power of the test substances to NK-1 receptors in vitro ([3H]-Substance P displacement, CHO cell membranes). As to conditions: negative common logarithm of Ki calculated from IC50. As for the experimental part:
The affinity of the test substances to human NK-1 receptors was measured in vitro. The inhibition of the binding of the physiological neurokinin (Substance P) to neurokinin-1 receptors was determined.
The receptor binding studies were performed with [^3H]-Substance P as ligand. For the binding test, different samples of a membrane preparation of CHO cells (=egg cells of the Chinese hamster, […]), which express the human NK-1 receptor (“Accession Number” of the associated nucleic acid sequence=M74290; “Accession Number” of the associated protein sequence=P25103; cf. Takeda, Y.; Chou, K. B., Takeda, J.; Sachais, B. S. and Krause, J. E; Biochemical and Biophysical Research Communications, 179(3) (1991) 1232-1240), were incubated with a solution of the marked ligand, with the incubation mixtures containing no test substance or additions of different concentrations of test substance. Then, separation of bound and free ligands was performed in each of the samples with the aid of glass-fibre filtration. The fraction remaining in the filter was washed several times with buffer solution and then the radioactivity of the fraction remaining in the filter was measured using a beta scintillation counter.
For the compounds of Examples 1 and 8 to 65, the affinity to human NK-1 receptors was determined in each case by a single measurement of the test substances in a concentration of 10^−7 mol/l.
For the compounds of Examples 2 and 4-6, that concentration which effects half maximum displacement of the bound ligand was determined as IC50 of the respective test substance. From this, the corresponding inhibition constant (Ki value) of the test substance was calculated, and was stated as the negative common logarithm of the Ki value (=pKi value). The pKi value is a measurement of the affinity of the test substances to human NK-1 receptors.

T2 sequence (P25103 whole entry): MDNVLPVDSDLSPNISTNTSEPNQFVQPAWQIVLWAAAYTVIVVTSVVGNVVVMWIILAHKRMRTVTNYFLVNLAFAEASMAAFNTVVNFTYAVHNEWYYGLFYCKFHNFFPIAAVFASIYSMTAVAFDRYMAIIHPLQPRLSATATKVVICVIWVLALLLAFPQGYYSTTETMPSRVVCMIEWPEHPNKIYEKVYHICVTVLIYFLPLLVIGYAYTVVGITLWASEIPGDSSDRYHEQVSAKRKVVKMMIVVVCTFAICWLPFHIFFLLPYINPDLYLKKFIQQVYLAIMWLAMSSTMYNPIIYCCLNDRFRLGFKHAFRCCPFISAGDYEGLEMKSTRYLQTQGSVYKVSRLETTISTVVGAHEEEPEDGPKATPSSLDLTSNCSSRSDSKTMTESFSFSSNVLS
T1 sequence (P30547 whole entry): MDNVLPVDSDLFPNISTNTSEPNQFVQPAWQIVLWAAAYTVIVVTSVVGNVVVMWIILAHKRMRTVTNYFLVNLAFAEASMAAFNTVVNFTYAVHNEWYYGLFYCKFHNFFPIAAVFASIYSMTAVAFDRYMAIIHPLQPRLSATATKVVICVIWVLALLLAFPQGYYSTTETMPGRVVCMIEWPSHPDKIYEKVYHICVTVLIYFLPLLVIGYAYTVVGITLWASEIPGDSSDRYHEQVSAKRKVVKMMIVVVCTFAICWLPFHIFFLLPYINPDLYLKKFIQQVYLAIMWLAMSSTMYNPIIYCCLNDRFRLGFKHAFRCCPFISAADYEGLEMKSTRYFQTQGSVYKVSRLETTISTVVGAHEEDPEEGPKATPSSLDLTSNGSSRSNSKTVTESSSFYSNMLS

Regarding `Cl.Cl.O=C(c1cc(C(F)(F)F)cc(C(F)(F)F)c1)N1CCN(Cc2n[nH]nc2CN2CCOCC2)C[C@H]1Cc1c[nH]c2ccccc12` [(2R)-1-[3,5-bis(trifluoromethyl)benzoyl]-2-(1H-indol-3-ylmethyl)-4-{[5-(morpholinomethyl)-2H-1,2,3-triazol-4-yl]methyl}piperazine-dihydrochloride], the solubility in water result in the series “Solubility in water” is “comparatively readily soluble in water”.
The molecule `O=C(c1cc(C(F)(F)F)cc(C(F)(F)F)c1)N1CCN(Cc2n[nH]nc2CN2CCOCC2)C[C@H]1Cc1c[nH]c2ccccc12` [Example 1, (2R)-1-[3,5-Bis(trifluoromethyl)benzoyl]-2-(1H-indol-3-ylmethyl)-4-{[5-(morpholinomethyl)-2H-1,2,3-triazol-4-yl]methyl}piperazine] had a negative logarithm of the EC50 (pEC50) at NK-1 receptors of 9.00. Moreover, the “typical effects of CNS-permeable NK-1 antagonists” value in the series on gerbil foot tapping was “did not exhibit any typical effects of CNS-permeable NK-1 antagonists”. In addition, in the series with basal blood pressure, the “vasodepression (action on basal blood pressure, calcium-antagonistic side-effect)” value is recorded as “no significant vasodepression”.
`O=C(c1cc(C(F)(F)F)cc(C(F)(F)F)c1)N1CCN(Cc2n[nH]nc2CN2CCNCC2)C[C@H]1Cc1c[nH]c2ccccc12` [Example 2] gave a negative logarithm of the EC50 (pEC50) at NK-1 receptors of 9.10. The pKi at human NK-1 receptors was 8.40.
`Cn1cc(C[C@@H]2CN(Cc3n[nH]nc3CN3CCOCC3)CCN2C(=O)c2cc(C(F)(F)F)cc(C(F)(F)F)c2)c2ccccc21` [Example 3] had a negative-log EC50 (pEC50) on NK-1 receptors of 8.40.
On NK-1 receptors, `CN(C)Cc1n[nH]nc1CN1CCN(C(=O)c2cc(C(F)(F)F)cc(C(F)(F)F)c2)[C@H](Cc2c[nH]c3ccccc23)C1` [Example 4, (2R)-1-[3,5-Bis(trifluoromethyl)benzoyl]-2-(1H-indol-3-ylmethyl)-4-{[5-(dimethylaminomethyl)-2H-1,2,3-triazol-4-yl]methyl}piperazine] gave a pEC50 of 8.60. Also, the pKi at human NK-1 receptors was 8.30.
For `CCN(CC)Cc1n[nH]nc1CN1CCN(C(=O)c2cc(C(F)(F)F)cc(C(F)(F)F)c2)[C@H](Cc2c[nH]c3ccccc23)C1` [Example 5], in that order: 8.70 and 8.30.
For `CC(C)N(Cc1n[nH]nc1CN1CCN(C(=O)c2cc(C(F)(F)F)cc(C(F)(F)F)c2)[C@H](Cc2c[nH]c3ccccc23)C1)C(C)C` [Example 6], in that order: 8.90 and 8.40.
